Source: patent US20220401439A1, “INTRANASAL PHARMACEUTICAL COMPOSITIONS OF CGRP INHIBITORS” (Biohaven Pharmaceutical Holding Company Ltd., priority 2019, published 2022)

System: patients receiving acute treatment of migraine
Assay: Phase 2/3 trial BHV3500-201 (Study 201), efficacy in acute treatment of migraine
Format: in vivo, human
Conditions: for Return to normal function at 2 hours postdose, n/N (%) / Return to normal function at 30 minutes postdose, n/N (%) / Return to normal function at 60 minutes postdose, n/N (%): mITT subjects with functional disability at on-study migraine attack onset; for Pain relapse from 2 to 48 hours postdose, n/N (%): mITT subjects with pain freedom at 2 hours postdose; for Nausea freedom at 2 hours postdose, n/N (%) / Phonophobia freedom at 2 hours postdose, n/N (%) / Photophobia freedom at 2 hours postdose, n/N (%): mITT subjects with symptom present at on-study migraine attack onset; for Pain relief at 2 hours postdose, n/N (%) / Pain relief at 30 minutes postdose, n/N (%) / Pain relief at 60 minutes postdose, n/N (%) / Rescue medication use within 24 hours postdose, n/N (%) / Sustained pain freedom from 2 to 24 hours postdose, n/N (%) / Sustained pain freedom from 2 to 48 hours postdose, n/N (%) / Sustained pain relief from 2 to 24 hours postdose, n/N (%) / Sustained pain relief from 2 to 48 hours postdose, n/N (%): mITT subjects; for Pain relief at 30 minutes postdose, Stratified Percentage Difference (Zavegepant-Placebo) / Pain relief at 60 minutes postdose, Stratified Percentage Difference (Zavegepant-Placebo) / Rescue medication use within 24 hours postdose, Stratified Percentage Difference (Zavegepant-Placebo) / Sustained pain freedom from 2 to 24 hours postdose, Stratified Percentage Difference (Zavegepant-Placebo) / Sustained pain freedom from 2 to 48 hours postdose, Stratified Percentage Difference (Zavegepant-Placebo) / Sustained pain relief from 2 to 24 hours postdose, Stratified Percentage Difference (Zavegepant-Placebo) / Sustained pain relief from 2 to 48 hours postdose, Stratified Percentage Difference (Zavegepant-Placebo) / Pain relief at 2 hours postdose, Stratified Percentage Difference (Zavegepant-Placebo): mITT; for Pain relief at 30 minutes postdose, Stratified Percentage Difference (Zavegepant-Placebo) / Pain relief at 60 minutes postdose, Stratified Percentage Difference (Zavegepant-Placebo) / Rescue medication use within 24 hours postdose, Stratified Percentage Difference (Zavegepant-Placebo) / Sustained pain freedom from 2 to 24 hours postdose, Stratified Percentage Difference (Zavegepant-Placebo) / Sustained pain freedom from 2 to 48 hours postdose, Stratified Percentage Difference (Zavegepant-Placebo) / Sustained pain relief from 2 to 24 hours postdose, Stratified Percentage Difference (Zavegepant-Placebo) / Sustained pain relief from 2 to 48 hours postdose, Stratified Percentage Difference (Zavegepant-Placebo) / Pain relief at 2 hours postdose, Stratified Percentage Difference (Zavegepant-Placebo) / Return to normal function at 30 minutes postdose, Stratified Percentage Difference (Zavegepant-Placebo) / Return to normal function at 60 minutes postdose, Stratified Percentage Difference (Zavegepant-Placebo) / Return to normal function at 2 hours postdose, Stratified Percentage Difference (Zavegepant-Placebo) / Pain relapse from 2 to 48 hours postdose, Stratified Percentage Difference (Zavegepant-Placebo) / Nausea freedom at 2 hours postdose, Stratified Percentage Difference (Zavegepant-Placebo) / Phonophobia freedom at 2 hours postdose, Stratified Percentage Difference (Zavegepant-Placebo) / Photophobia freedom at 2 hours postdose, Stratified Percentage Difference (Zavegepant-Placebo): CMH weighting; for Pain relief at 2 hours postdose, Stratified Percentage Difference (Zavegepant-Placebo): stratified by prophylactic migraine medication use; for Return to normal function at 30 minutes postdose, Stratified Percentage Difference (Zavegepant-Placebo) / Return to normal function at 60 minutes postdose, Stratified Percentage Difference (Zavegepant-Placebo) / Return to normal function at 2 hours postdose, Stratified Percentage Difference (Zavegepant-Placebo): subjects with functional disability at onset; for Pain relapse from 2 to 48 hours postdose, Stratified Percentage Difference (Zavegepant-Placebo): subjects with pain freedom at 2 hours postdose; for Nausea freedom at 2 hours postdose, Stratified Percentage Difference (Zavegepant-Placebo) / Phonophobia freedom at 2 hours postdose, Stratified Percentage Difference (Zavegepant-Placebo) / Photophobia freedom at 2 hours postdose, Stratified Percentage Difference (Zavegepant-Placebo): subjects with symptom present at onset

Cc1cc(C[C@@H](NC(=O)N2CCC(c3cc4ccccc4[nH]c3=O)CC2)C(=O)N2CCN(C3CCN(C)CC3)CC2)cc2cn[nH]c12 [Zavegepant, (R)—N-(3-(7-methyl-1H-indazol-5-yl)-1-(4-(1-methylpiperidin-4-yl)piperazin-1-yl)-1-oxopropan-2-yl)-4-(2-oxo-1,2-dihydroquinolin-3-yl)piperidine-1-carboxamide]
Return to normal function at 2 hours postdose, n/N (%) (zavegepant 5 mg): (31.7) %
Pain relapse from 2 to 48 hours postdose, n/N (%) (zavegepant 5 mg): (31.6) %
Nausea freedom at 2 hours postdose, n/N (%) (zavegepant 5 mg): (53.2) %
Phonophobia freedom at 2 hours postdose, n/N (%) (zavegepant 5 mg): (44.2) %
Photophobia freedom at 2 hours postdose, n/N (%) (zavegepant 5 mg): (35.0) %
Pain relief at 2 hours postdose, n/N (%) (zavegepant 10 mg intranasal single dose): (60.6) %
Pain relief at 30 minutes postdose, Stratified Percentage Difference (Zavegepant-Placebo) (zavegepant 10 mg vs placebo): 5.3%
Pain relief at 60 minutes postdose, Stratified Percentage Difference (Zavegepant-Placebo) (zavegepant 10 mg vs placebo): 4.2%
Rescue medication use within 24 hours postdose, Stratified Percentage Difference (Zavegepant-Placebo) (zavegepant 10 mg vs placebo): −1.1%
Sustained pain freedom from 2 to 24 hours postdose, Stratified Percentage Difference (Zavegepant-Placebo) (zavegepant 10 mg vs placebo): 6.1%
Sustained pain freedom from 2 to 48 hours postdose, Stratified Percentage Difference (Zavegepant-Placebo) (zavegepant 10 mg vs placebo): 6.3%
Sustained pain relief from 2 to 24 hours postdose, Stratified Percentage Difference (Zavegepant-Placebo) (zavegepant 10 mg vs placebo): 6.8%
Sustained pain relief from 2 to 48 hours postdose, Stratified Percentage Difference (Zavegepant-Placebo) (zavegepant 10 mg vs placebo): 7.0%
Pain relief at 2 hours postdose, Stratified Percentage Difference (Zavegepant-Placebo) (zavegepant 10 mg vs placebo): 7.1%
Return to normal function at 30 minutes postdose, Stratified Percentage Difference (Zavegepant-Placebo) (zavegepant 10 mg vs placebo): 2.1%
Return to normal function at 60 minutes postdose, Stratified Percentage Difference (Zavegepant-Placebo) (zavegepant 10 mg vs placebo): 1.8%
Return to normal function at 2 hours postdose, Stratified Percentage Difference (Zavegepant-Placebo) (zavegepant 10 mg vs placebo): 7.1%
Pain relapse from 2 to 48 hours postdose, Stratified Percentage Difference (Zavegepant-Placebo) (zavegepant 10 mg vs placebo): −17.0%
Nausea freedom at 2 hours postdose, Stratified Percentage Difference (Zavegepant-Placebo) (zavegepant 10 mg vs placebo): 2.9%
Phonophobia freedom at 2 hours postdose, Stratified Percentage Difference (Zavegepant-Placebo) (zavegepant 10 mg vs placebo): 10.8%
Photophobia freedom at 2 hours postdose, Stratified Percentage Difference (Zavegepant-Placebo) (zavegepant 10 mg vs placebo): 5.1%
Pain relief at 30 minutes postdose, n/N (%) (zavegepant 10 mg): (29.9) %
Pain relief at 60 minutes postdose, n/N (%) (zavegepant 10 mg): (46.0) %
Rescue medication use within 24 hours postdose, n/N (%) (zavegepant 10 mg): (26.0) %
Sustained pain freedom from 2 to 24 hours postdose, n/N (%) (zavegepant 10 mg): (15.1) %
Sustained pain freedom from 2 to 48 hours postdose, n/N (%) (zavegepant 10 mg): (13.8) %
Sustained pain relief from 2 to 24 hours postdose, n/N (%) (zavegepant 10 mg): (42.5) %
Sustained pain relief from 2 to 48 hours postdose, n/N (%) (zavegepant 10 mg): (39.6) %
Return to normal function at 30 minutes postdose, n/N (%) (zavegepant 10 mg): (7.6) %
Return to normal function at 60 minutes postdose, n/N (%) (zavegepant 10 mg): (18.9) %
Return to normal function at 2 hours postdose, n/N (%) (zavegepant 10 mg): (34.5) %
Pain relapse from 2 to 48 hours postdose, n/N (%) (zavegepant 10 mg): (33.0) %
Nausea freedom at 2 hours postdose, n/N (%) (zavegepant 10 mg): (53.9) %
Phonophobia freedom at 2 hours postdose, n/N (%) (zavegepant 10 mg): (44.8) %
Photophobia freedom at 2 hours postdose, n/N (%) (zavegepant 10 mg): (35.6) %
Pain relief at 2 hours postdose, n/N (%) (zavegepant 20 mg intranasal single dose): (61.2) %
Pain relief at 30 minutes postdose, Stratified Percentage Difference (Zavegepant-Placebo) (zavegepant 20 mg vs placebo): 1.9%
Pain relief at 60 minutes postdose, Stratified Percentage Difference (Zavegepant-Placebo) (zavegepant 20 mg vs placebo): 7.8%
Rescue medication use within 24 hours postdose, Stratified Percentage Difference (Zavegepant-Placebo) (zavegepant 20 mg vs placebo): −7.1%
Sustained pain freedom from 2 to 24 hours postdose, Stratified Percentage Difference (Zavegepant-Placebo) (zavegepant 20 mg vs placebo): 6.7%
Sustained pain freedom from 2 to 48 hours postdose, Stratified Percentage Difference (Zavegepant-Placebo) (zavegepant 20 mg vs placebo): 5.7%
Sustained pain relief from 2 to 24 hours postdose, Stratified Percentage Difference (Zavegepant-Placebo) (zavegepant 20 mg vs placebo): 8.9%
Sustained pain relief from 2 to 48 hours postdose, Stratified Percentage Difference (Zavegepant-Placebo) (zavegepant 20 mg vs placebo): 6.2%
Pain relief at 2 hours postdose, Stratified Percentage Difference (Zavegepant-Placebo) (zavegepant 20 mg vs placebo): 7.5%
Return to normal function at 30 minutes postdose, Stratified Percentage Difference (Zavegepant-Placebo) (zavegepant 20 mg vs placebo): 4.5%
Return to normal function at 60 minutes postdose, Stratified Percentage Difference (Zavegepant-Placebo) (zavegepant 20 mg vs placebo): 1.7%
Return to normal function at 2 hours postdose, Stratified Percentage Difference (Zavegepant-Placebo) (zavegepant 20 mg vs placebo): 7.3%
Pain relapse from 2 to 48 hours postdose, Stratified Percentage Difference (Zavegepant-Placebo) (zavegepant 20 mg vs placebo): −12.5%
Nausea freedom at 2 hours postdose, Stratified Percentage Difference (Zavegepant-Placebo) (zavegepant 20 mg vs placebo): 3.7%
Phonophobia freedom at 2 hours postdose, Stratified Percentage Difference (Zavegepant-Placebo) (zavegepant 20 mg vs placebo): 9.3%
Photophobia freedom at 2 hours postdose, Stratified Percentage Difference (Zavegepant-Placebo) (zavegepant 20 mg vs placebo): 7.4%
Pain relief at 30 minutes postdose, n/N (%) (zavegepant 20 mg): (26.6) %
Pain relief at 60 minutes postdose, n/N (%) (zavegepant 20 mg): (49.8) %
Rescue medication use within 24 hours postdose, n/N (%) (zavegepant 20 mg): (20.2) %
Sustained pain freedom from 2 to 24 hours postdose, n/N (%) (zavegepant 20 mg): (15.7) %
Sustained pain freedom from 2 to 48 hours postdose, n/N (%) (zavegepant 20 mg): (13.2) %
Sustained pain relief from 2 to 24 hours postdose, n/N (%) (zavegepant 20 mg): (44.5) %
Sustained pain relief from 2 to 48 hours postdose, n/N (%) (zavegepant 20 mg): (38.8) %
Return to normal function at 30 minutes postdose, n/N (%) (zavegepant 20 mg): (9.9) %
Return to normal function at 60 minutes postdose, n/N (%) (zavegepant 20 mg): (18.8) %
Return to normal function at 2 hours postdose, n/N (%) (zavegepant 20 mg): (34.7) %
Pain relapse from 2 to 48 hours postdose, n/N (%) (zavegepant 20 mg): (37.6) %
Nausea freedom at 2 hours postdose, n/N (%) (zavegepant 20 mg): (54.7) %
Phonophobia freedom at 2 hours postdose, n/N (%) (zavegepant 20 mg): (43.3) %
Photophobia freedom at 2 hours postdose, n/N (%) (zavegepant 20 mg): (37.9) %
